{"source": "patent US7432369B2", "about": "“Pyridyl-substituted porphyrin compounds and methods of use thereof” (Inotek Pharmaceuticals Corporation, priority 2004, dated 2008)", "key": {"[1]": {"system": "rats subjected to myocardial infarction", "test": "Myocardial infarction by occlusion and reperfusion of the left anterior descending coronary artery", "assay_type": "in vivo, rat", "conditions": "5 minutes prior to reperfusion", "experimental": "Rats were subjected to myocardial infarction by occlusion and reperfusion of the left anterior descending coronary artery as previously described in C. Y. Xiao et al., J Pharmacol Exp Ther., August 2004;310(2):498-504. Compound 3 was administered at doses of 1, 3, or 6 mg/kg i.v., 5 minutes prior to reperfusion."}, "[2]": {"system": "rats subjected to heterotopic heart transplantation", "test": "Heterotopic heart transplantation", "assay_type": "in vivo, rat", "conditions": "10 mg/kg/day orally", "experimental": "Rats were subjected to heterotopic heart transplantation as described previously in H. Jiang et al., Transplantation, Jun. 15, 2002;73(11):1808-17. Compound 3 was administered at a dose of 10 mg/kg/day orally."}, "[3]": {"system": "rats subjected to balloon-induced vascular injury", "test": "Balloon-induced vascular injury of the carotid artery", "assay_type": "in vivo, rat", "conditions": "1 mg/kg bid", "description": "Rats were subjected to balloon-induced vascular injury of the carotid artery as previously described in C. Zhang et al., Am J Physiol Heart Circ Physiol., August 2004;287(2):H659-66."}, "[4]": {"system": "A549 human epithelial cells", "test": "Oxidant or free-radical damage, cell viability (mitochondrial respiration)", "assay_type": "cell-based", "conditions": "A549 cells treated with oxidants and free radicals", "experimental": "(§1) The four right-hand most bar graphs represent cytotoxin plus […] of Compound 3.\n(§2) A549 human epithelial cells and RAW murine macrophages were grown and cultured, then treated with oxidants and free radicals in the presence or absence of varying concentrations of Compound 3 according to the method of C. Szabo et al., Mol Med., October 2002;8(10):571-80. […] Protection is by 3-100 μM of Compound 3."}, "RAW murine macrophages": {"system": "RAW murine macrophages", "test": "Oxidant or free-radical damage, cell viability (mitochondrial respiration)", "assay_type": "cell-based", "conditions": "RAW cells treated with oxidants and free radicals", "experimental": "as §1, §2"}, "[5]": {"system": "mice subjected to heart failure", "test": "Heart failure induced by aortic banding", "assay_type": "in vivo", "conditions": "3 mg/kg/day orally", "experimental": "Mice were subjected to heart failure induced by aortic banding as previously described in C. Y. Xiao et al., J Pharmacol Exp Ther., March 2005;312(3):891-8. Compound 3 was administered at a dose of 3 mg/kg/day orally."}, "[6]": {"system": "mice subjected to streptozocin diabetes", "test": "Multiple low dose streptozocin diabetes", "assay_type": "in vivo", "conditions": "3 or 10 mg/kg/day ip", "description": "Mice were subjected to multiple low dose streptozocin diabetes as previously described in J. G. Mabley et al., Br J Pharmacol., July 2001;133(6):909-19."}, "[7]": {"system": "rats subjected to hemorrhagic shock", "test": "Hemorrhagic shock and resuscitation", "assay_type": "in vivo, rat", "conditions": "6 mg/kg i.v., 5 minutes prior to resuscitation", "experimental": "Rats were subjected to 2 hours of hemorrhage, followed by resuscitation as previously described in O. V. Evgenov et al., Crit Care Med., October 2003;31(10):2429-36. Compound 3 was administered at a dose of 6 mg/kg i.v., 5 minutes prior to resuscitation. […] To obtain the results shown in FIG. 7, rats were bled to reach mean BP of 40 mm Hg. This mean BP was maintained for 2 hours, followed by resuscitation with saline at a volume of 2× the shed blood volume. Rats were then observed for 3 hours, and the survival time was recorded. Compound 3 (6 mg/kg) was administered intravenously before the start of resuscitation. To obtain the results shown in FIG. 8, left intraventricular systolic pressure (LVSP), dP/dt, -dP/dt were monitored continuously for 20 minutes from 40 minutes after resuscitation. Compound 3 (6 mg/kg) was administered intravenously before the start of resuscitation. To obtain the results shown in FIG. 9, blood was taken 1 hour after resuscitation. Compound 3 (6 mg/kg) was administered intravenously before the start of resuscitation. To obtain the results shown in FIG. 10, blood was taken at 1 hour after resuscitation. Compound 3 (6 mg/kg) was administered intravenously before the start of resuscitation."}}}
{"smiles": "O=C([O-])c1ccc(C[n+]2ccccc2/C2=C3\\C=CC(=N3)/C(c3cccc[n+]3Cc3ccc(C(=O)[O-])cc3)=c3/cc/c4[n]3[Fe]([Cl])[n]3c2ccc3/C(c2cccc[n+]2Cc2ccc(C(=O)[O-])cc2)=C2/C=CC(=N2)\\C=4c2cccc[n+]2Cc2ccc(C(=O)[O-])cc2)cc1", "note": "[Compound 3]", "values": [{"measurement": "plasma levels of creatine kinase", "setting": "[1]; 6 mg/kg i.v.", "value": "reduced plasma levels of creatine kinase"}, {"measurement": "protective effect", "setting": "[1]; 6 mg/kg i.v.", "value": "significant protective effect"}, {"measurement": "infarct size", "setting": "[1]; 1, 3, or 6 mg/kg i.v.", "value": "effective for reducing infarct size"}, {"measurement": "degree of myocardial hypertrophy", "setting": "[2]", "value": "reduced the degree of myocardial hypertrophy"}, {"measurement": "degree of intimal hypertrophy", "setting": "[3]", "value": "reduced the degree of intimal hypertrophy"}, {"measurement": "development of endothelial dysfunction", "setting": "[3]", "value": "prevented the development of endothelial dysfunction"}, {"measurement": "loss of endothelium-dependent relaxations on the injured side", "setting": "[3]; FIG. 13", "value": "completely prevented this loss of the endothelial function"}, {"measurement": "concentration giving protection", "setting": "[4]", "value": "3 to 100", "unit": "µM"}, {"measurement": "protection against the suppression of cell viability", "setting": "[4]", "value": "dose-dependently protected"}, {"measurement": "concentration giving protection", "setting": "RAW murine macrophages", "value": "3 to 100", "unit": "µM"}, {"measurement": "protection against the suppression of cell viability", "setting": "RAW murine macrophages", "value": "dose-dependently protected"}, {"measurement": "degree of myocardial hypertrophy", "setting": "[5]", "value": "reduced the degree of myocardial hypertrophy"}, {"measurement": "development of hyperglycemia", "setting": "[6]", "value": "prevented the development of hyperglycemia"}, {"measurement": "pancreatic insulin content", "setting": "[6]", "value": "normalized pancreatic insulin content"}, {"measurement": "blood pressure", "setting": "[7]", "value": "effective for stabilizing blood pressure"}, {"measurement": "plasma levels of ALT", "setting": "[7]", "value": "reduced"}, {"measurement": "plasma levels of creatine kinase", "setting": "[7]", "value": "reduced plasma levels of creatine kinase"}, {"measurement": "survival rate", "setting": "[7]", "value": "increasing survival rate"}]}
